Consider 1 substance from patent publication US20190086390A1, “INDIRECT ASSESSMENT OF INSULIN RELEASE IN A CELL” (Board of Supervisors of Louisiana State University and …, priority 2016, published 2019).

“Also recorded” adds a separate entry of the source.

What all share (format): cell-based, rat
The test system of one test is CCL2. Description: CCL2 secretion into media of 832/13 cells, ELISA. The protocol: (§1) 832/13 cells were grown in 12-well plates and treated as indicated. RPMI was supplemented with 0.3% BSA, and media were collected at the indicated time points. In addition, the cells were lysed using M-PER lysis reagent (Thermo Fisher Scientific) to quantify total intracellular protein content. CCL2 and CCL20 secretion into the media was measured by CCL2 Quantikine ELISA kit (R & D Systems, Minneapolis, Minn.) and CCL20 DuoSet ELISA kit (R & D Systems) according to the manufacturer's protocol. ELISA data were normalized to total protein to account for any differences in cell number between treatment groups.
In general terms: ELISA stands for enzyme-linked immunosorbent assay.

Another test deals with CCL20. Kind of test: CCL20 secretion into media of 832/13 cells, ELISA. The note with it: glucose 2, 4, 8 or 16 mM; IL-1β 6 h. On the procedure:
as §1

The next test has as its system iNOS. Kind of test: iNOS mRNA (RT-PCR) and protein (immunoblot) abundance in 832/13 cells. The note with it: 832/13 cells exposed to IL-1β. The text has this: RNA isolation from cell lines and rat islets, cDNA synthesis, and analysis of real-time RT-PCR data has been described in detail previously (12). For all transcripts studied, the relative mRNA abundance was normalized to that of the housekeeping gene ribosomal S9. Primers used to detect transcript levels of ribosomal S9, iNOS, IL-1, and Nkx6.1 were designed using Primer3Plus software and are available upon request.
(§2) Cell lysis and extraction of cytoplasmic and nuclear protein fractions was performed using the NE-PER kit (Thermo Fisher Scientific) according to the manufacturer's directions. The protein concentration of the lysate was determined using the bicinchoninic acid assay (Thermo Fisher Scientific), using BSA as the standard. SDS-PAGE, transfer to polyvi-nylidene difluoride membranes, membrane blocking before antibody incubation, and downstream subsequent detection using a ChemiDoc imaging system (Bio-Rad) have been described previously (16). Antibodies detecting β-actin or tubulin were used as loading controls. Antibodies used were from the following sources: iNOS (Santa Cruz Biotechnology), (3-actin (Cell Signaling Technology), Ikα: (Santa Cruz Biotechnology), tubulin (Cell Signaling Technology), and Pdx-1 (Cell Signaling Technology). The antibody recognizing Nkx6.1 has been described (34). Immunoblot images were quantified using Image Lab software (Bio-Rad).
(A western blot detects proteins with antibodies after separation by electrophoresis.)

Test [1] relates to 832/13 cells. Description: Nitrite accumulation in culture media, Griess assay. The settings on record: IL-1β. The protocol: (§3) Nitrite in the cell culture media was measured as an index of NO production using the Griess assay kit (Promega, Madison, Wis.), whereas cellular reduction of the 3-(4,5-dimethylthiazol-2-yl)-5-(3-carboxymethoxyphenyl)-2-(4-sulfophe-nyl)-2H-tetrazohum, inner salt (MTS) dye was determined using the MTS 1 solution kit (Promega) according to the manufacturer's protocol.
Background: The Griess reaction detects nitrite, a stable product of nitric oxide.

A further test deals with Nkx6.1. Description: Nkx6.1 protein abundance, immunoblot of cytosolic and nuclear fractions. The note with it: 832/13 cells, IL-1β 4 h. On the procedure: as §2
In a further test the test system is Pdx-1. Description: Pdx-1 protein abundance, immunoblot. The note with it: 832/13 cells, IL-1β 4 h. The protocol: as §2
For the next test, the system named is 832/13 and 833/15 cells. Kind of test: Mitochondrial/nuclear DNA ratio analysis. The note with it: 6 or 18 h. The protocol:
Genomic DNA was isolated using a DNeasy kit from Qiagen (Valencia, Calif.) per the manufacturer's protocol and quantified via quantitative PCR using iTaq Universal SYBR Green Supermix (Bio-Rad). Mitochondrial number was determined as the expression of genes encoded by mitochondrial DNA (COI and ATP6) relative to nuclear genes (NDUFA and SDHA) using the AACT method. This methodology has been described previously (24).

The test system of test [2] is 832/13 cells. Description: MTS dye reduction assay. The settings on record: 1 ng/ml IL-1β, 18 h. On the procedure: as §3
Test [3] concerns 832/13 cells. Description: Oxygen consumption rate (Seahorse XF24). The note with it: 1 ng/ml IL-1β, 18 h. The protocol:
Oxygen consumption rates (OCR) were measured using the XF^24 Extracellular Flux Analyzer (Seahorse Bioscience, Chicopee, Mass.). 832/13 cells were grown on cell culture plates for 2 days prior to OCR assays being run. Cells were treated with vehicle, 1 ng/ml IL-β, 1 mM I-NMMA, or both IL-1β (1 ng/ml) plus I-NMMA (1 mM) for 18 h prior to OCR being measured. The oxygen consumption rate was measured over a 2-h period. Data represent the calculated average area under the curve from six wells per treatment group over multiple independent experiments.

Test [4] has as its system voltage-gated Ca^2+ channels. Kind of test: Whole cell voltage clamp recordings. The note with it: n=25; for cell size (whole cell capacitance) vs control: IL-1β pretreatment. The text has this:
Cell culture dishes were mounted on the stage of an Olympus K70 inverted microscope. A reference Ag/AgCl pellet served to ground the bath. Patch electrodes were pulled from thick-walled borosilicate glass with a filament (outer diameter 1.5 mm; inner diameter: 0.86 mm; Sutter Instruments, Novato, Calif.) using a Haming-Brown Micropipette Puller (Sutter Instruments). Electrode resistance values ranged from 4 to 7 Mfl. Ruptured patch, whole cell voltage clamp recordings were made using an Axopatch ID-patch clamp amplifier (Molecular Devices, Sunnyvale, Calif.). Data were recorded using pClamp 10.0 software (Molecular Devices). Unless otherwise indicated, all reagents were purchased from Sigma-Aldrich (St. Louis, Mo.). External solutions consisted of the following (in mM): 116.7 NaCl, 20.0 TEAC1, 3.0 CaCl2, 0.4 MgCl2, 4.0 glucose, and 10.0 HEPES. Voltage clamp experiments were performed in the ruptured patch configuration using the following internal solution (in mM): 100.00 CsAc, 10.0 CsCl, 2.0 MgCl2, 0.1 CaCl2, and 10.0 HEPES. Also included was an ATP regeneration system to preserve Ca^2+ currents [3.0 ATP (dipotassium), 1.0 ATP (disodium), 20.0 phosphocreatine, 2.0 GTP, and 50 U/ml creatine phos-phokinase]. Cesium was used as a substitute for K^+ to minimize currents through voltage-gated K^+ channels. Tetrodotoxin (300 nM; Alomone Laboratories, Jerusalem, Israel) was included in the external solution to block voltage-gated Na^+ currents. The liquid junction potential error for these solutions was estimated to be −13 mV (pClamp). Solutions were adjusted to pH 7.4 with NaOH for external solutions and with CsOH for internal solutions. A pressurized gravity flow perfusion system (1.5-2 mi/min) was used to deliver the external solutions (AutoMate Scientific, Berkeley, Calif.).

For “IL-1β: proinflammatory cytokine purchased from Thermo Fisher Scientific, used at 1 ng/ml”, the “expression and secretion of CCL2 in response to IL-1β” value in the test on CCL2 (832/13 cells, 1 ng/ml IL-1β) is on record as “markedly elevated; also recorded: strongly induced”. Further, in the test with CCL2 (IL-1β), the “time to chemokine secretion after cellular exposure” value fell in the range of 3 to 6 h. Also, the “IL-1β-induced secretion of CCL2 over a range of glucose concentrations” value with CCL2 (glucose 2, 4, 8 or 16 mM, IL-1β 6 h) was “not different”. Further, the “IL-1β-induced secretion of CCL20 over a range of glucose concentrations” value in the test on CCL20 was “not different”. In addition, the “iNOS expression (transcript and protein)” value in the test on iNOS is reported as “rapidly induced; also recorded: accumulates; also recorded: robust iNOS abundance”. Besides, in the test with 832/13 cells [1] (6 h), the “increase in nitrite accrual” value was 5.5 fold. This substance also gave an increase in nitrite in the test with 832/13 cells [1] (time not given, associated with 54% diminution in GSIS) of 13 fold. Moreover, in the test on Nkx6.1, the “decrease in Nkx6.1 abundance” value is 47%. Moreover, the “amount of Pdx-1 protein” value in the test with Pdx-1 is on record as “unchanged”. Further, the “mitochondrial/nuclear DNA ratios” value in the test on 832/13 and 833/15 cells is “did not detect any alterations”. For the same substance, the “decrease in reduction of the MTS dye” value in the test with 832/13 cells [2] came out at 38%. Besides, the “decrease in cellular oxygen consumption rate” value with 832/13 cells [3] is given as 25%. In addition, the “cell size (whole cell capacitance) vs control” value in [4] was “no effect on cell size”; in test [4] (listed as IL-I1β), “not significantly different”. Moreover, in test [4] (IL-1β-treated 832/13 cells, step to −3 mV), the “voltage-gated Ca^2+ current density vs control” value is on record as “not significantly different; also recorded: No significant difference”.
